{"source": "patent US20220312825A1", "about": "(priority 2021, published 2022)", "origin": "cited, not measured here", "details": "free base (non-protonated)"}
{"compound": "CN1CCCC1c1cccnc1", "note": "(stereo not shown) [Free-base nicotine, 3-(1-methyl-2-pyrrolidinyl) pyridine]", "values": [{"measurement": "pKa value", "value": "about 8"}]}
